Tested on: HeLa thapsigargin-induced death, ATPlite luminescence, 24 h
Assay: protection from thapsigargin-induced HeLa death, SAR follow-up, cell-based, HeLa cervical carcinoma, ATP content (AID 1356)
Details: at 25 µM, stronger effect = higher value
[1] = measured here: survival at thapsigargin 15 uM
[2] = measured here: survival at thapsigargin 20 uM
[3] = measured here: survival, thapsigargin level col 9
[4] = measured here: survival, thapsigargin level col 10

SMILES | survival [%] | survival [1] [%] | survival [2] [%] | survival [3] [%] | survival [4] [%]
CCCOc1ccc(C2Nc3ccccc3NC3=C2C(=O)CC(c2ccc(OC)c(OC)c2)C3)cc1 (stereo not given) | 91 | 109 | 90 | 88 | 90
O=C1CC(c2ccccc2)CC2=C1C(c1c(F)cccc1Cl)Nc1ccccc1N2 (stereo not given) | 118 | 89 | 18 | 93 | 99
COc1ccc(C2CC(=O)C3=C(C2)Nc2ccccc2NC3c2cc(C)ccc2C)cc1 (stereo not given) | 99 | 83 | 24 | 80 | 81
COc1ccc(C2CC(=O)C3=C(C2)Nc2ccccc2NC3c2cccc(C(F)(F)F)c2)cc1OC (stereo not given) | 90 | 100 | 122 | 88 | 90
COc1ccc(C2CC(=O)C3=C(C2)Nc2ccccc2NC3c2ccccc2C(F)(F)F)cc1OC (stereo not given) | 92 | 107 | 72 | 93 | 91
CCOc1cc(C2Nc3ccccc3NC3=C2C(=O)CC(c2ccc(OC)cc2)C3)cc(Cl)c1O (stereo not given) | 129 | 29 | 8 | 90 | 106
CC1(C)CC(=O)C2=C(C1)Nc1ccccc1NC2c1ccc(-c2ccccc2)cc1 (stereo not given) | 97 | 106 | 114 | 92 | 88
CCOc1cccc(C2Nc3ccccc3NC3=C2C(=O)CC(c2ccc(OC)cc2)C3)c1 (stereo not given) | 96 | 8 | 3 | 81 | 106
COc1ccc(C2CC(=O)C3=C(C2)Nc2ccccc2NC3c2cccc(Oc3ccccc3)c2)cc1OC (stereo not given) | 90 | 96 | 102 | 87 | 85
COc1ccc(C2CC(=O)C3=C(C2)Nc2ccccc2NC3c2cccc(Br)c2)cc1OC (stereo not given) | 87 | 93 | 90 | 86 | 92
CSc1ccc(C2Nc3ccccc3NC3=C2C(=O)CC(c2ccccc2)C3)cc1 (stereo not given) | 85 | 77 | 23 | 81 | 83

— PubChem BioAssay AID1356 (Sanford-Burnham Center for Chemical Genomics, 2008)
